According to patent US8969343B2, “Histone demethylase inhibitors” (priority 2012, dated 2015):
Structures can show the parent of a compound that is named as a salt. Where two headings read alike, the source gives them in different places.

Legend:
[1] = molecular target: T1, JMJD2C (Homo sapiens, UniProt Q9H3R0); assay: JMJD2C in vitro enzyme inhibition assay (TR-FRET); format: biochemical; details: 0.3 nM JMJD2C, 300 nM H3K9me3-biotin peptide, 2 μM alpha-ketoglutaric acid
T1 sequence (Q9H3R0 2-372): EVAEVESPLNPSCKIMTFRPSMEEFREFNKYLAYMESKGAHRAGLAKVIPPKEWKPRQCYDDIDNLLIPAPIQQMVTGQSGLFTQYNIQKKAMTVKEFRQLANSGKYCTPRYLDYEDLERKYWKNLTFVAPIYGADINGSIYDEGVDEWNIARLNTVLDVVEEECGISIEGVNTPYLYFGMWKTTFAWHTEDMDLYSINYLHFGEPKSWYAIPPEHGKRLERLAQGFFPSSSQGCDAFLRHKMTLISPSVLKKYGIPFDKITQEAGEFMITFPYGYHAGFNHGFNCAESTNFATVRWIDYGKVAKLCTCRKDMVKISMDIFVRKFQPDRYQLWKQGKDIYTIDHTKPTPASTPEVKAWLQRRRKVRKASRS
Method: (§1) This assay determines the ability of a test compound to inhibit Jarid1A, Jarid1B, and JMJD2C demethylase activity.
Reaction product was determined quantitatively by TR-FRET after the addition of detection reagent Phycolink Streptavidin-allophycocyanin (Prozyme) and Europium-anti-di-methylated histone H3 lysine 9 (H3K9me2) antibody (PerkinElmer) in the presence of 5 mM EDTA in LANCE detection buffer (PerkinElmer) at a final concentration of 50 nM and 1 nM, respectively.
The assay reaction was initiated by the following: 2 μl of the mixture of 900 nM H3K9me3-biotin labeled peptide and 6 μM alpha-ketoglutaric acid with 2 μl of 11-point serial diluted inhibitor in 3% DMSO were added to each well of the plate, followed by the addition of 2 μl of 0.9 nM JMJD2C to initiate the reaction. The reaction mixture was incubated at room temperature for 30 minutes, and terminated by the addition of 6 μl of 5 mM EDTA in LANCE detection buffer containing 100 nM Phycolink Streptavidin-allophycocyanin and 2 nM Europium-anti-H3K9me2 antibody.

[2] = molecular target: T2, Jarid1B (Homo sapiens, UniProt Q9UGL1); assay: Jarid1B in vitro enzyme inhibition assay (TR-FRET); format: biochemical; details: 0.8 nM Jarid1B, 300 nM H3K4me3-biotin peptide, 2 μM alpha-ketoglutaric acid
T2 sequence (Q9UGL1 2-751): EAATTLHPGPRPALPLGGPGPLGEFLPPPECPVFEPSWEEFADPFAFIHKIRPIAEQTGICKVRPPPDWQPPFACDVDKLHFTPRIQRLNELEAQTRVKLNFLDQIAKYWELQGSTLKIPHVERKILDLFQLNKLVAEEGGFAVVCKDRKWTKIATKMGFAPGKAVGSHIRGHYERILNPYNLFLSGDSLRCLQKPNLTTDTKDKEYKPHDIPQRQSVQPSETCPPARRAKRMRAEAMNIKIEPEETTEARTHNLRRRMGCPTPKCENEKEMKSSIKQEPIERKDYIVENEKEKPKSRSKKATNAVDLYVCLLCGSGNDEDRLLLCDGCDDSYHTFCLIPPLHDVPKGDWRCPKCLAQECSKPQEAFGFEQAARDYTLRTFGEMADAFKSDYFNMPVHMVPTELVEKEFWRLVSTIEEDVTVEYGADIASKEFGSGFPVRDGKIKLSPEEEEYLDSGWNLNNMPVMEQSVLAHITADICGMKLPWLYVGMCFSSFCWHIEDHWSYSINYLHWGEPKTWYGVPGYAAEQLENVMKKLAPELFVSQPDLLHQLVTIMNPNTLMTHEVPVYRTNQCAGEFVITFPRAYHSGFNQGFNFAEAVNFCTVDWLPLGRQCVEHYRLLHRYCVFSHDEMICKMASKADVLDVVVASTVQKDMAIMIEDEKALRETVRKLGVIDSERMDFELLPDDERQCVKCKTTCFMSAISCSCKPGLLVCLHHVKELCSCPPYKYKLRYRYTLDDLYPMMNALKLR
Method: as §1
The reaction mixture was incubated at room temperature for 30 minutes, and terminated by the addition of 6 μl of 5 mM EDTA in LANCE detection buffer containing 50 nM Phycolink Streptavidin-allophycocyanin and 2 nM Europium-anti-H3K4me1-2 antibody.

[3] = molecular target: T3, Jarid1A (Homo sapiens, UniProt P29375); assay: Jarid1A in vitro enzyme inhibition assay (TR-FRET); format: biochemical
T3 construct: purchased BPS Bioscience 50110
T3 sequence (P29375 1-1090): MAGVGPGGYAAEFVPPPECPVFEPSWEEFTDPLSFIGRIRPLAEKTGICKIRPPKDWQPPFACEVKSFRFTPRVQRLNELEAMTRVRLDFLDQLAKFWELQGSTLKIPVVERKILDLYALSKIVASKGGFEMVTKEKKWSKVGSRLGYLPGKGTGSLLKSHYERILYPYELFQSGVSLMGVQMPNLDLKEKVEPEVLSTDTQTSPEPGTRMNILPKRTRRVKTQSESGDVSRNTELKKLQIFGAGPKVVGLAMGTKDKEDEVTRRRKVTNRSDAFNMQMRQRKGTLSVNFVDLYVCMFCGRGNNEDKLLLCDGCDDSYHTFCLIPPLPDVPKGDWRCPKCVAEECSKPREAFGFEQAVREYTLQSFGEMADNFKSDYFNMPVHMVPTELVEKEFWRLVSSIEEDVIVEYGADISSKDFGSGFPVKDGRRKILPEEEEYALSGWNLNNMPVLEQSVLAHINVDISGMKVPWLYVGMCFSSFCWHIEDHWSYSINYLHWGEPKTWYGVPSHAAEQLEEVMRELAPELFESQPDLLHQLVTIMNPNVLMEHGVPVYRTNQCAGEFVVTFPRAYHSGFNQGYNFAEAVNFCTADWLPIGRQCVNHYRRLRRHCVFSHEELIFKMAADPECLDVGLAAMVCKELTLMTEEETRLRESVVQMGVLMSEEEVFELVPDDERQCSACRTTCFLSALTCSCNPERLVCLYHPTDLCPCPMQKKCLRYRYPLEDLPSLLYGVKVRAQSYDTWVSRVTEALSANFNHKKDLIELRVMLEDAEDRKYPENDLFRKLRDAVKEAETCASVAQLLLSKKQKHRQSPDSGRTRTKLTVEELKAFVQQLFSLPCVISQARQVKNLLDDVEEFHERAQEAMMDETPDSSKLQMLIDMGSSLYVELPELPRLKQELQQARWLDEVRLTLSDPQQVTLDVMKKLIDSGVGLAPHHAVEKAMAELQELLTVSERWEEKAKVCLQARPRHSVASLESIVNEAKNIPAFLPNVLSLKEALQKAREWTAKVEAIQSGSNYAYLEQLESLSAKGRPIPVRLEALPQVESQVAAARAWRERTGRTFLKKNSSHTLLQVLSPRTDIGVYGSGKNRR
Method: as §1
The enzymatic assay of Jarid1A activity is based upon Time Resolved-Fluorescence Resonance Energy Transfer (TR-FRET) detection. […] The assay reaction was initiated by the following: 2 μl of the mixture of 900 nM H3K4me3-biotin labeled peptide and 6 μM alpha-ketoglutaric acid with 2 μl of 11-point serial diluted inhibitor in 3% DMSO was added to each well of plate, followed by the addition of 2 μl of 3 nM Jarid1A to initiate the reaction. The reaction mixture was incubated at room temperature for 30 minutes, and terminated by the addition of 6 μl of 5 mM EDTA in LANCE detection buffer containing 50 nM Phycolink Streptavidin-allophycocyanin and 2 nM Europium-anti-H3K4me1-2 antibody.

[4] = system: KDM5A/B; assay: In vitro cell-based assay: tri-methyl H3K4 immuno-blotting in ZR-75-1 breast cancer cells; details: 72 hours, tri-methyl H3K4, relative IC50, read-out: Cellular IC50
Method: This quantitative immuno-blotting assay measures the amount tri-methylated histone H3 at amino acid Lysine number 4, a specific substrate […] of the direct enzymatic activity of the histone demethylases KDM5A and KDM5B from extracts of the ZR-75-1 breast cancer cell line.
This assay is a fluorometric immunoassay for the quantification of tri-methyl H3K4 extracted from cells treated with test compound and is used as a measure of the cellular inhibition of KDM5A/B.
Extracts were prepared containing all of the cellular histone material using detergent based lysis and sonication methods. These lysates were subsequently normalized for total protein content using a colorimetric bicinchonic acid assay (MicroBCA Pierce/Thermo Scientific). Normalized cell extracts were then subjected to typical immuno-blotting procedures using NuPage reagents (Life Technologies). […] The amount of tri-methylated lysine 4 of histone H3 was detected using an antibody specific to the tri-methylated state (Cell Signaling Technologies) and quantified on an infrared imager using a densitometry software package (Odyssey CLx, Image Studio, Li-Cor). This background subtracted densitometry value was reported as a ration of the GAPDH amount for that sample and then calculated as a percent of the DMSO treated sample. […]

[5] = 1 nM Jarid1A, 300 nM H3K4me3-biotin peptide, 2 μM alpha-ketoglutaric acid

| SMILES | IC50 [1] [nM] | IC50 [2] [nM] | IC50 [3, 5] [nM] | IC50 [3] [nM] | IC50 [4] [nM] |
| --- | --- | --- | --- | --- | --- |
| Cn1nc2ccccc2c1Nc1cnccc1C(=O)O [Example 2, 3-[(2-methyl-2H-indazol-3-yl)amino]pyridine-4-carboxylic acid] | 100 to 1000 | 1000 to 10000 | 1000 to 10000 |  |  |
| CN(C)CCCCCn1nc(Nc2cnccc2C(=O)O)c2cc(F)ccc21 [Example 22] | 100 to 1000 | < 100 |  | < 100 |  |
| O=C(O)c1ccncc1Nc1nn(Cc2ccccc2)c2ccc(F)cc12 [Example 24, 3-[(1-benzyl-5-fluoro-1H-indazol-3-yl)amino]pyridine-4-carboxylic acid] | 100 to 1000 | < 100 | < 100 |  | > 10000 |
| CNCCCCCn1nc(Nc2cnccc2C(=O)O)c2cc(F)ccc21 [Example 46, 3-({5-fluoro-1-[5-(methylamino)pentyl]-1H-indazol-3-yl}amino)pyridine-4-carboxylic acid, trifluoroacetic acid salt] | < 100 | < 100 | < 100 |  |  |
| CN(C)CC#CCn1nc(Nc2cnccc2C(=O)O)c2cc(F)ccc21 [Example 49, 3-({1-[4-(dimethylamino)but-2-yn-1-yl]-5-fluoro-1H-indazol-3-yl}amino)pyridine-4-carboxylic acid, trifluoroacetic acid salt] | < 100 | < 100 | < 100 |  |  |
| O=C(O)c1ccncc1Nc1nn(C2CCC(F)(F)CC2)c2ccc(F)cc12 [Example 64, 3-{[1-(4,4-difluorocyclohexyl)-5-fluoro-1H-indazol-3-yl]amino}pyridine-4-carboxylic acid] | 1000 to 10000 | 1000 to 10000 | 1000 to 10000 |  |  |
